From paper PMC7251097, “Aspartate/asparagine-β-hydroxylase: a high-throughput mass spectrometric assay for discovery of small molecule inhibitors” (Scientific Reports, 2020)
Structures can show the parent of a compound that is named as a salt. Where two headings read alike, the source gives them in different places.

Target: T1, His6-AspH315–758 (human aspartate/asparagine-β-hydroxylase, AspH) (Homo sapiens, UniProt Q12797)
T1 construct: N-Terminally His6-tagged human AspH315–758 (His6-AspH315–758) was produced in E. coli BL21 (DE3) cells; made in house; host or cells: E. coli BL21 (DE3), pET-28a(+) vector
T1 sequence (Q12797 315-758): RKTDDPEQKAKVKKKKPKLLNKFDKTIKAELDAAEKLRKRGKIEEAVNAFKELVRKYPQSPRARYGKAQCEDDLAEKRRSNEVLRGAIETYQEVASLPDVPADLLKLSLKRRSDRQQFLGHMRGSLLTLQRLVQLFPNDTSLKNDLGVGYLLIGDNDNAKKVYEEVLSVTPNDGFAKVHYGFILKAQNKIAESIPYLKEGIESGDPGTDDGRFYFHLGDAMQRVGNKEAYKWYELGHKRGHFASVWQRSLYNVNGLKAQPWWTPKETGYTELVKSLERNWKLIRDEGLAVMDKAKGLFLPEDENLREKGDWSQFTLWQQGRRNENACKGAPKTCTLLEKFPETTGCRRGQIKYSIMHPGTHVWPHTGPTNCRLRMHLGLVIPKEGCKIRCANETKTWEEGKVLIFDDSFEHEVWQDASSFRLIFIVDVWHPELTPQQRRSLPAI
Assay: SPE-MS AspH inhibition assay (LOPAC screen at fixed 20 μM and IC50 dose-response), hydroxylation of cyclic peptide hFX-CP101–119
Format: biochemical
Conditions: for Plate 2 (% inhibition): normalised to DMSO and 2,4-PDCA controls

[1] = LOPAC compound at fixed 20 uM, plate 1, normalised to DMSO and 2,4-PDCA controls
[2] = LOPAC compound at fixed 20 uM, substrate conversion, plate 1
[3] = LOPAC compound at 20uM, plate 3, conversion of substrate peptide
[4] = LOPAC compound at 20uM, conversion of substrate peptide
[5] = LOPAC Plate 4, compound at 20 uM, substrate conversion

C[C@@H](O)[C@H]1C(=O)N2C(C(=O)O)=C(SCCN=CN)C[C@H]12 [Imipenem monohydrate]
Plate 1 (% inhibition) [1]: 6.01% | Plate 1 (% conversion) [2]: 33.85%

CN[C@@H]1C[C@@H](c2ccc(Cl)c(Cl)c2)c2ccccc21 [Indatraline hydrochloride]
Plate 3 (% conversion): 41.79%

CC(C)(C)NC(=O)[C@@H]1CN(Cc2cccnc2)CCN1C[C@@H](O)C[C@@H](Cc1ccccc1)C(=O)N[C@H]1c2ccccc2C[C@H]1O.O=S(=O)(O)O [Indinavir sulfate salt hydrate]
Plate 1 (% inhibition) [1]: -10.28% | Plate 1 (% conversion) [2]: 39.32%

O=C1Nc2ccccc2/C1=C1/Nc2ccccc2/C1=N\O [Indirubin-3-oxime]
Plate 1 (% inhibition) [1]: 11.42% | Plate 1 (% conversion) [2]: 32.04%

NC(=O)CI [Iodoacetamide, reference compound]
Inhibition at 20 µM [%]: 102.0%

CC(C)NNC(=O)c1ccncc1.O=P(O)(O)O [Iproniazid phosphate]
Plate 3 (% conversion) [3]: 39.38%

O=C(/C=C/c1ccc(O)cc1)c1ccc(O)cc1O [Isoliquiritigenin]
Plate 3 (% conversion) [3]: 31.17%

CCC(NC(C)C)C(O)c1ccc(O)c(O)c1.CS(=O)(=O)O (stereo not drawn) [Isotharine mesylate]
Plate 3 (% conversion) [3]: 6.91%

O=C1c2ccccc2C(=O)c2c(NCCc3ccc(O)cc3)ccc(NCCc3ccc(O)cc3)c21 [JFD00244]
Plate 2 (% conversion) [4]: 12.89% | Plate 2 (% inhibition) (LOPAC compound at 20uM): 68.90%

Clc1ccc(N/N=C(\c2ccccc2)c2ccccn2)nc1 [JIB-04, reference compound]
IC50 (50 nM His6-AspH315–758, 1.0 μM hFX-CP101–119, 3 μM 2OG, 2 μM Fe(II), 50 mM HEPES pH 7.5, 20 °C, mean ± SD, n = 2 (2,4-PDCA n = 10), read-out: IC50): 4.24 ± 0.3 µM

COc1cc(SC)ccc1C(=O)N1CCC(Cc2ccccc2)CC1 [JX401]
Plate 2 (% conversion) [4]: 45.70% | Plate 2 (% inhibition) (LOPAC compound at 20uM): -29.09%

N=C(N)SCCc1ccc(OCc2ccc([N+](=O)[O-])cc2)cc1 [KB-R7493]
% inhibition (LOPAC Plate 4, compound at 20 uM): -22.55% | % conversion [5]: 44.17%

C=C(C)[C@H]1CN[C@H](C(=O)O)[C@H]1CC(=O)O [Kainic acid]
Plate 3 (% conversion): 38.81%

O=C1Cc2c([nH]c3ccc(Br)cc23)-c2ccccc2N1 [Kenpaullone]
Plate 3 (% conversion) [3]: 35.01%

O=C(c1ccc(F)cc1)C1CCN(CCn2c(=O)[nH]c3ccccc3c2=O)CC1 [Ketanserin tartrate]
% conversion [5]: 19.47%

CC(=O)N1CCN(c2ccc(OCC3COC(Cn4ccnc4)(c4ccc(Cl)cc4Cl)O3)cc2)CC1 (stereo not drawn) [Ketoconazole]
Plate 3 (% conversion): 46.43%

CC(C(=O)O)c1cccc(C(=O)c2ccccc2)c1 (stereo not drawn) [Ketoprofen]
Plate 3 (% conversion) [3]: 34.58%

NC(CO)(CO)CO.O=C(c1ccccc1)c1ccc2n1CCC2C(=O)O (stereo not drawn) [Ketorolac tris salt]
Plate 3 (% conversion) [3]: 36.01%

NC[C@H](O)c1ccc(O)c(O)c1.O=C(O)C(O)C(O)C(=O)O [L(-)-Norepinephrine bitartrate]
Plate 1 (% inhibition) [1]: 89.51% | Plate 1 (% conversion) [2]: 5.81%

N[C@@H](CCCC(=O)O)C(=O)O [L-2-aminoadipic acid]
Plate 1 (% inhibition) [1]: -2.85% | Plate 1 (% conversion) [2]: 36.83%

N[C@@H](Cc1ccc(O)c(O)c1)C(=O)O [L-3,4-Dihydroxyphenylalanine]
Plate 2 (% conversion) [4]: 10.03% | Plate 2 (% inhibition) (LOPAC compound at 20uM): 77.43%

Ic1ccccc1CNC1C2CCN(CC2)C1C(c1ccccc1)c1ccccc1.O=C(O)C(=O)O [L-703,606 oxalate salt hydrate]
Plate 3 (% conversion): 12.64%

N=C(N)NCCC[C@H](N)C(=O)O [L-Arginine]
Plate 1 (% conversion): 38.11% | Plate 1 (% inhibition): -6.68%

N[C@@H](CC(=O)O)C(=O)O [L-Aspartic acid]
Plate 1 (% inhibition) [1]: -3.19% | Plate 1 (% conversion) [2]: 36.94%

N[C@H](C(=O)O)[C@H](Cc1ccccc1)C(=O)O [L-Beta-threo-benzyl-aspartate]
% conversion [5]: 30.62%

CCCCS(=N)(=O)CC[C@H](N)C(=O)O (stereo partly drawn) [L-Buthionine-sulfoximine]
Plate 1 (% inhibition) [1]: 3.50% | Plate 1 (% conversion) [2]: 34.70%

NC(N)=NOCC[C@H](N)C(=O)O.O=S(=O)(O)O [L-Canavanine sulfate]
Plate 1 (% conversion): 38.13% | Plate 1 (% inhibition): -6.73%

N[C@H]1CON=C1O [L-Cycloserine]
Plate 1 (% inhibition) [1]: -2.43% | Plate 1 (% conversion) [2]: 36.69%

N[C@@H](CS(=O)O)C(=O)O [L-Cysteinesulfinic Acid]
Plate 1 (% inhibition) [1]: 8.76% | Plate 1 (% conversion) [2]: 32.93%

N[C@H](C(=O)O)[C@H](O)c1ccc(O)c(O)c1 [L-DOPS]
Plate 3 (% conversion) [3]: 7.53%
